This is an account of results in ChEMBL document CHEMBL1135080, “Pyridazine based inhibitors of p38 MAPK” (Bioorg Med Chem Lett, 2002).

Molecules are shown by their SMILES.

Test [1] addresses T1, MAP kinase p38 (Homo sapiens, UniProt O15264+Q15759+Q16539+P53778). The experiment in a line: Inhibition of Mitogen-activated protein kinase p38. Type of test: protein assay.
The target of test [2] is RAF proto-oncogene serine/threonine-protein kinase (Homo sapiens) (UniProt P04049). Kind of test: Inhibition of c-Raf kinase at 5000 nM.
RAF proto-oncogene serine/threonine-protein kinase (Homo sapiens), sequence (P04049 whole entry): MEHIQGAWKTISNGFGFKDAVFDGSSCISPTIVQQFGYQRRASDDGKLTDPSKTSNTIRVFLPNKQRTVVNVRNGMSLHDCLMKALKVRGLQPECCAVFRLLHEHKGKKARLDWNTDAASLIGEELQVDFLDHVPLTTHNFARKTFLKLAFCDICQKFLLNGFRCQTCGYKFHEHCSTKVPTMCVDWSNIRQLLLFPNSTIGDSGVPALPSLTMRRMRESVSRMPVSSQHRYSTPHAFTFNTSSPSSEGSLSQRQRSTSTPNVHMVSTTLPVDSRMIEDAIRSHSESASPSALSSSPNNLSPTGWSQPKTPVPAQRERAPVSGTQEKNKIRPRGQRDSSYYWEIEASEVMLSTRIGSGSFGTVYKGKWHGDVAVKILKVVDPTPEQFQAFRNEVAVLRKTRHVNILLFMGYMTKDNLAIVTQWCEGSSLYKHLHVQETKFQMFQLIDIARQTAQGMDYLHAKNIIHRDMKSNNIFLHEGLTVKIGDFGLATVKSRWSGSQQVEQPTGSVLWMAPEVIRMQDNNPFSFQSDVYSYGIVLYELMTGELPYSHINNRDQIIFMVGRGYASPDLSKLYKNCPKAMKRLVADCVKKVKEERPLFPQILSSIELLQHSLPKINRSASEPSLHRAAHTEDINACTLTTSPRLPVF
The target in test [3] is T2, Mitogen-activated protein kinase 9 (Homo sapiens, UniProt P45984). Kind of test: Inhibition of JNK2-alpha-2 kinase.
T2 sequence (P45984 whole entry): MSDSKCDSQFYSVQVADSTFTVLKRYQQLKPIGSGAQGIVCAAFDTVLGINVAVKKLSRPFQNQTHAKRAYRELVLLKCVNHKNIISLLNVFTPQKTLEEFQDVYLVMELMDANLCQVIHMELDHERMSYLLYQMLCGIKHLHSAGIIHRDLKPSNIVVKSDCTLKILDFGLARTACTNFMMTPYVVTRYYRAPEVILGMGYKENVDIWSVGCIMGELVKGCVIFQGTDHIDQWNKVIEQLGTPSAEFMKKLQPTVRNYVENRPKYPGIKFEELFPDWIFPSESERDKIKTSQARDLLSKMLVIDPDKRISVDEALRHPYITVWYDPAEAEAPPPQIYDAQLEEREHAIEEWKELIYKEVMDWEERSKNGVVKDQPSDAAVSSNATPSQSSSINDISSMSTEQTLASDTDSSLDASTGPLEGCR
In test [4] the target is Tyrosine-protein kinase Lck (Homo sapiens) (UniProt P06239). Kind of test: Inhibition of LCK1 kinase at 15000 nM.
Tyrosine-protein kinase Lck (Homo sapiens), sequence (P06239 2-509 limits assumed): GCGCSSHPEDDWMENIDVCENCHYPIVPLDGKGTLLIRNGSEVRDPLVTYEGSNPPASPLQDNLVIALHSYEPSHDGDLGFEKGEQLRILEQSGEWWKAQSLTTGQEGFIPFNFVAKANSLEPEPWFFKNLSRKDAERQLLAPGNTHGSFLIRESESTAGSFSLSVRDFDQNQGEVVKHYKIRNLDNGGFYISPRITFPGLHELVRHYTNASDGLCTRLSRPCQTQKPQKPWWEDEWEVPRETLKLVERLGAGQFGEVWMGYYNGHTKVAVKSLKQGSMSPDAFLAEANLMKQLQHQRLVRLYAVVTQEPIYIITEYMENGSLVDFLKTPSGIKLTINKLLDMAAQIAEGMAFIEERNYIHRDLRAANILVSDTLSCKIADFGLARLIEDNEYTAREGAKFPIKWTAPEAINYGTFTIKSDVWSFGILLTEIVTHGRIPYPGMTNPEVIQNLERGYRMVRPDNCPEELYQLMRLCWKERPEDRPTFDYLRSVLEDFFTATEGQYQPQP
Test [5] concerns the target T2, Mitogen-activated protein kinase 9. Kind of test: Inhibition of JNK2-alpha-1 kinase.
In test [6] the target is T1, MAP kinase p38. Kind of test: Inhibition of Mitogen-activated protein kinase p38 at 1000 nM. Type of test: protein assay.

In the case of `C[C@H](Nc1nccc(-c2cc(N(C)C)nnc2-c2cccc(C(F)(F)F)c2)n1)c1ccccc1`, the IC50 (commonly the concentration that gives 50% inhibition) at MAP kinase p38 [1] turned out to be 0.0025 µM.
Same read-out and setting: in the case of `C[C@H](Nc1nccc(-c2cc(N(C)CCN(C)C)nnc2-c2cccc(C(F)(F)F)c2)n1)c1ccccc1` it was 0.0014 µM.
`C[C@H](Nc1nccc(-c2cc(N3CCNCC3)nnc2-c2cccc(C(F)(F)F)c2)n1)c1ccccc1` returned an IC50 at MAP kinase p38 [1] of 0.0006 µM.
Turning to `C[C@H](Nc1nccc(-c2cc(N3CCOCC3)nnc2-c2cccc(C(F)(F)F)c2)n1)c1ccccc1`, the 50% inhibitory concentration (IC50) against MAP kinase p38 [1] amounted to 0.0026 µM; in test [3] it was 1.4 µM; in test [5], 0.82 µM. The inhibition (as a rule, the change of the read-out against control, counted positive when it falls) turned out to be 29% in test [2] and 22% in test [4].
The compound `C[C@H](Nc1nccc(-c2cc(N3CCN(C)CC3)nnc2-c2cccc(C(F)(F)F)c2)n1)c1ccccc1` displayed an IC50 against MAP kinase p38 [1] of 0.0019 µM.
On the same count and under the same terms, in the case of `CC1CCN(c2cc(-c3ccnc(N[C@@H](C)c4ccccc4)n3)c(-c3cccc(C(F)(F)F)c3)nn2)CC1` it was 0.0074 µM.
With `C[C@H](Nc1nccc(-c2nnc(C3CCNCC3)cc2-c2cccc(C(F)(F)F)c2)n1)c1ccccc1`, the inhibition at MAP kinase p38 [6] was 4.81%.
`C[C@H](Nc1nccc(-c2nc(C3CCNCC3)n(C)c2-c2cccc(C(F)(F)F)c2)n1)c1ccccc1` had an IC50 at MAP kinase p38 [1] of 12 µM.
On to `C[C@H](Nc1nccc(-c2cc(N3CCCCC3)nnc2-c2cccc(C(F)(F)F)c2)n1)c1ccccc1`, for which, at MAP kinase p38 [1], the concentration for half-maximal inhibition (IC50) came out at 0.0201 µM.
